Experimental data from patent US5453533A (priority 1994, dated 1995).
Entries after “also recorded” stand apart in the source; their conditions may differ. Read-outs that look alike come from different tables or passages of the source.

Key:
[1] = molecular target: T1, N2 (A/Tokyo/67) neuraminidase (Influenza A virus, UniProt P06820); assay: biochemical; parameters: species or system influenza A virus (A/Tokyo/67)
[2] = molecular target: T2, type B (B/Memphis/3/89) neuraminidase (Influenza B virus (B/Memphis/3/89), UniProt P16199); format: biochemical; conditions: read-out: IC50, MUN substrate, B/Mem/89
T2 sequence (P16199 whole entry, looked up): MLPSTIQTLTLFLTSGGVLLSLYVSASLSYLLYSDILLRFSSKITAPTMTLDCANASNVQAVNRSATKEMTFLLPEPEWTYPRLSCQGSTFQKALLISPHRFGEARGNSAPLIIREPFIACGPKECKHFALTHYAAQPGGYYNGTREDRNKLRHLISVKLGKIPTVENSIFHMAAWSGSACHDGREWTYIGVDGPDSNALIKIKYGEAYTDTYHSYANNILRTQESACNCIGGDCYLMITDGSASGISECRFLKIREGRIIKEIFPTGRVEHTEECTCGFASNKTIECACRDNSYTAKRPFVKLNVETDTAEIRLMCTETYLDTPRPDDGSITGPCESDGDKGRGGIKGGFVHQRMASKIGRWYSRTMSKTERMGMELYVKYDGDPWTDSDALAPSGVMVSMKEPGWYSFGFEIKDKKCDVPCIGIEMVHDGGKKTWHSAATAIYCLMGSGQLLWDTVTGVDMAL

[3] = molecular target: T2, type B (B/Memphis/3/89) neuraminidase; format: biochemical; conditions: read-out: IC50, Fetuin substrate, B/Mem/89
[4] = molecular target: T1, N2 (A/Tokyo/67) neuraminidase; assay: biochemical; parameters: species or system influenza A virus (A/Tokyo/67); remark: listed apart in the source
influenza NA [5] = format: biochemical, influenza virus type A or type B
influenza neuraminidase = conditions: cited from earlier work
influenza A neuramidase = conditions: Taylor & von Itzstein, 1994; cited from earlier work
[6] = molecular target: N2 (Influenza A virus (A/Tokyo/3/1967(H2N2)), UniProt P06820); format: binding
N2 (Influenza A virus (A/Tokyo/3/1967(H2N2)), UniProt P06820), sequence (P06820 whole entry, looked up): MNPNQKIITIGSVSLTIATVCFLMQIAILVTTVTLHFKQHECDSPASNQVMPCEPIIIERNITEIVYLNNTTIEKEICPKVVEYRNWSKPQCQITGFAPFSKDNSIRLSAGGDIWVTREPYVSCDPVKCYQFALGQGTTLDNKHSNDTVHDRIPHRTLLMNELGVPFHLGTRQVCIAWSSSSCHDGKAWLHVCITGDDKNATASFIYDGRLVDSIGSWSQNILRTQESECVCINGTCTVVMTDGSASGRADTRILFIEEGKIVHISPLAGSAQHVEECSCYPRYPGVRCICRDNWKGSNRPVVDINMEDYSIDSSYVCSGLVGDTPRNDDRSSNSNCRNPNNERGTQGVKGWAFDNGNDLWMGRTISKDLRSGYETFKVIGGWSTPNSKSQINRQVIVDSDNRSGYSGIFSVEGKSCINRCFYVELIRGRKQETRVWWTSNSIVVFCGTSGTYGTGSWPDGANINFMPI

influenza subtype A = conditions: cited from earlier work
influenza B = conditions: cited from earlier work
Influenza NA [7] = conditions: trisaccharide substrate; cited from earlier work
[8] = whole virus, 50% inhibition of NA activity, MUN, 15 minutes at 37° C, pH 6.0

T1 sequence (P06820 whole entry, looked up): as above

Molecule `CC(=O)Nc1ccc(C(=O)O)cc1[N+](=O)[O-]` [Compound 107] has an IC50 [1] of 5 mM, an IC50 [2, 8] of 5 mM and an IC50 ([3]; whole virus, 50% inhibition of NA activity, fetuin) of 5 mM. The IC50 [4] was 5 mM and the “Change in activity from nitro group alone or phenol OH alone” value (influenza NA [5]) was “did not result in significant changes in activity”.

Work on `CC(=O)Nc1ccc(C(=O)O)cc1O` [Compound 101, 4-(acetylamino)-3-hydroxybenzoic acid] yielded an IC50 [1] of 10 mM, an IC50 ([2]; pH 6) of over 10 mM and an IC50 [3] of 10 mM. The IC50 [4] was over 10 mM and the “Change in activity from nitro group alone or phenol OH alone” value (influenza NA [5]) was “did not result in significant changes in activity”.

`CC(=O)Nc1c(OC(C)=O)cc(C(=O)O)cc1[N+](=O)[O-]` [Compound 104, 3-acetoxy-4-(acetylamino)-5-nitrobenzoic acid] gave an IC50 ([2]; pH 6) of 2 mM and an IC50 [3] of 5 mM.

In the case of `O=C(O)C1=C[C@H](O)[C@@H](NC(=O)C(F)(F)F)[C@H]([C@H](O)[C@H](O)CO)O1` [FANA, 2-deoxy-2,3-dehydro-N-(trifiuoroacetyl)neuraminic acid], the “in vitro activity compared with DANA” value (influenza neuraminidase; Palese and Compans, 1976) is listed as “greater in vitro activity”.

For `CC(=O)N[C@H]1[C@H]([C@H](O)[C@H](O)CO)OC(C(=O)O)=C[C@@H]1O` [DANA, 2-deoxy-2,3-dehydro-N-acetylneuraminic acid, reference compound], the IC50 [1] is given as 0.015 mM, the IC50 ([2]; pH 6) is given as 0.015 mM and the Ki (influenza neuraminidase; in vitro, influenza neuraminidase) is given as 0.01 mM. The Ki (influenza A neuramidase) was 0.004 mM, the IC50 [3] was 0.015 mM and the IC50 [4] was 0.015 mM.

For `CC(=O)Nc1c(O)cc(C(=O)O)cc1[N+](=O)[O-]` [Compound 105, 4-(acetylamino)-3-hydroxy-5-nitrobenzoic acid], the “binding to N2” value [6] was “binds strongest to N2”, the IC50 ([2]; pH 6) was 0.75 mM and the IC50 [3] was 1 mM. The “Activity compared with sialic acid” value (influenza NA [5]) was “significantly more potent than sialic acid; also recorded: enhanced activity”.

In the case of `CC(=O)N[C@H]1[C@H]([C@H](O)[C@H](O)CO)OC(O)(C(=O)O)C[C@@H]1O` (stereo partly shown) [sialic acid, N-acetylneuraminic acid, reference compound], the IC50 [2, 8] is given as over 10 mM, the Ki (influenza neuraminidase) is given as about 1 mM and the IC50 (influenza NA [5]; whole virus screen, MUN and fetuin, read-out: IC50 (modest product inhibitor)) is given as 10 mM.

`CC(=O)Nc1ccc(C(=O)O)cc1OC(C)=O` [Compound 102, 4-(acetylamino)-3-acetoxybenzoic acid] gave an IC50 [1] of 10 mM, an IC50 ([2]; pH 6) of over 10 mM and an IC50 [3] of 5 mM. The IC50 [4] was over 10 mM.

For `CC(=O)Nc1c(N)cc(C(=O)O)cc1O.Cl` [Compound 106, 3-amino-4-(acetylamino)-5-hydroxybenzoic acid, hydrochloride], the IC50 [1] was over 10 mM, the “binding to N2” value [6] was “bind fairly well” and the IC50 ([2]; pH 6) was 10 mM. It also gave an IC50 [3] of over 10 mM and an IC50 [4] of over 10 mM.

In the case of `NC12CC3CC(CC(C3)C1)C2` [amantadine], the “effect against influenza A” value (influenza subtype A) is given as “effective only against influenza subtype A” and the “effect on influenza B” value (influenza B) is given as “no effect on influenza B”.

For `CC(=O)Nc1ccc(C(=O)O)cc1NC(=O)CN` [Compound 111, 4-(acetylamino)-3-[(aminoacetyl)amino]benzoic acid], the IC50 [3] was 5 mM and the IC50 [4] was 5 mM.

`CC(=O)Nc1ccc(C(=O)O)cc1NC(=O)CO` [Compound 109, 4-(acetylamino)-3-[(hydroxyacetyl)amino]benzoic acid] gave an IC50 [1] of over 10 mM, an IC50 ([2]; pH 6) of 3 mM and an IC50 [3] of 10 mM. It also gave an IC50 [4] of 4 mM.

`CC(=O)Nc1ccc(C(=O)O)cc1NC(=O)C(O)CO` (stereo not shown) [Compound 110, 4-(acetylamino)-3-[(2,3-dihydroxypropionyl)amino]benzoic acid] showed an IC50 ([2]; pH 6) of 8 mM and an IC50 [3] of over 10 mM.

In the case of N-acetyl neuraminyl lactose, the Km (Influenza NA [7]) is listed as about 400 µM.

For `CC(=O)Nc1ccc(C(=O)O)cc1N` [Compound 108, 4-(acetylamino)-3-aminobenzoic acid], the IC50 [1] was over 10 mM, the “binding to N2” value [6] was “binds the weakest to N2” and the IC50 ([2]; pH 6) was over 20 mM. For the same molecule, the IC50 [4] was over 10 mM.

`CC(=O)Nc1cc([N+](=O)[O-])c(C(=O)O)c([N+](=O)[O-])c1O` [Compound 103, 4-(acetylamino)-3-hydroxy-2,6-dinitrobenzoic acid] gave an IC50 ([2]; pH 6) of 1 mM and an IC50 [3] of 4 mM.

For `CC(N)C12CC3CC(CC(C3)C1)C2` (stereo not shown) [rimantadine], the “effect against influenza A” value (influenza subtype A) is listed as “effective only against influenza subtype A” and the “effect on influenza B” value (influenza B) is listed as “no effect on influenza B”.

In the case of `CC(=O)Nc1ccc(C(=O)O)cc1NC(=O)CCCN` [Compound 112, 4-(acetylamino)-3-[(4-aminobutanoyl)amino]benzoic acid], the IC50 [1] is reported as over 10 mM, the IC50 ([2]; pH 6) is reported as over 10 mM and the IC50 [3] is reported as over 10 mM. It also gave an IC50 [4] of over 10 mM.
